Test results published in patent publication US5324724A (priority 1990, dated 1994).
Like-named read-outs stand apart in the source and are kept apart here.

Key:
muscarinic receptors [1] = test: Displacement of muscarinic agonist 3H-Oxotremorine-M (3H-OXO-M) binding, cerebral cortex membranes; design: species or system Hooded Lister rats; settings: rat cerebral cortex; 2 nM 3H-OXO-M; 37° C., 30 min; E3 as hydrochloride salt, all others as oxalate salts
muscarinic receptors [2] = type: binding, Hooded Lister rats; settings: rat cerebral cortex; 0.27 nM 3H-QNB; 37° C., 30 min; E3 as hydrochloride salt, all others as oxalate salts

Structure (SMILES) | IC50 (muscarinic receptors [1]) | IC50 (muscarinic receptors [2])
COc1nncc(C23CCN(CC2)C3)n1 [Example E5, 4-(3-Methoxy-1,2,4-triazin-5-yl)-1-azabicyclo[2.2.1]heptane] | 1.1 µM | 14 µM
Nc1nncc(C2CN3CCC2CC3)n1 (racemic) [Example E6, (±)3-(3-Amino-1,2,4-triazin-5-yl)-1-azabicyclo[2.2.2]octane] | 0.011 µM | 2.37 µM
Cc1nncc([C@@H]2CN3CC[C@@H]2C3)n1 (relative stereo) [Example E8a, 3-(3-Methyl-1,2,4-triazin-5-yl) -1-azabicyclo[2.2.1]heptane] | 0.0031 µM | 0.255 µM
Nc1nncc(C23CCCN(CC2)C3)n1 (racemic) [Example E2, (±) 5-(3-Amino-l,2,4-triazin-5-yl)-1-azabicyclo[3.2.1]octane] | 0.005 µM | 1.11 µM
Cc1nncc(C23CCCN(CC2)C3)n1 (racemic) [Example E1, (±) 5-(3-Methyl-l,2,4-triazin-5-yl)-1-azabicyclo[3.2.1]octane] | 0.033 µM | 1.8 µM
Cc1nncc(C23CCN(CC2)C3)n1 [Example E3, 4-(3-Methyl-1,2,4-triazin-5-yl)-1-azabicyclo[2.2.1]heptane] | 0.07 µM | 4.4 µM
Nc1nncc(C2CN3CCC2C3)n1 (racemic) [E9a & E9b, (±) exo and endo 3-(3-Amino-1,2,4-triazin-5-yl) -1-azabicyclo[2.2.1]heptane] | 0.0011 µM | 0.32 µM
Cc1nncc(C2CN3CCC2CC3)n1 (racemic) [Example E7, (±) 3-(3-Methyl-1,2,4-triazin-5-yl)-1-azabicyclo[2.2.2]octane] | 0.0033 µM | 0.175 µM
Nc1nncc(C23CCN(CC2)C3)n1 [Example E4, 4-(3-Amino-1,2,4-triazin-5-yl)-1-azabicyclo[2.2.1]heptane] | 0.004 µM | 1.49 µM
CCc1nncc([C@@H]2CN3CC[C@@H]2C3)n1 (relative stereo) [Example E10, (±) exo and endo 3-(3-Ethyl-1,2,4-triazin-5-yl) -1-azabicyclo[2.2.1]heptane] | 0.068 µM | 0.24 µM
